Test results as given in ChEMBL document CHEMBL1125576, “alpha-Keto amide inhibitors of aminopeptidases” (J Med Chem, 1992).
pKi: −log10 of the molar value.

Columns and labels:
Aminopeptidase B = Aminopeptidase B (Homo sapiens, UniProt Q9H4A4); assay: Compound was tested for binding affinity towards arginyl aminopeptidase
Aminopeptidase N [1] = biological target: T1, Aminopeptidase N (Homo sapiens, UniProt P15144); assay: Compound was tested for binding affinity towards microsomal aminopeptidase
Aminopeptidase N [2] = biological target: T1, Aminopeptidase N; assay: Compound was tested for binding affinity towards microsomal aminopeptidase; Kii was reported
Aminopeptidase N [3] = biological target: T1, Aminopeptidase N; assay: Compound was tested for binding affinity towards microsomal aminopeptidase; Kis was reported

Chain of Aminopeptidase B (Q9H4A4 whole entry): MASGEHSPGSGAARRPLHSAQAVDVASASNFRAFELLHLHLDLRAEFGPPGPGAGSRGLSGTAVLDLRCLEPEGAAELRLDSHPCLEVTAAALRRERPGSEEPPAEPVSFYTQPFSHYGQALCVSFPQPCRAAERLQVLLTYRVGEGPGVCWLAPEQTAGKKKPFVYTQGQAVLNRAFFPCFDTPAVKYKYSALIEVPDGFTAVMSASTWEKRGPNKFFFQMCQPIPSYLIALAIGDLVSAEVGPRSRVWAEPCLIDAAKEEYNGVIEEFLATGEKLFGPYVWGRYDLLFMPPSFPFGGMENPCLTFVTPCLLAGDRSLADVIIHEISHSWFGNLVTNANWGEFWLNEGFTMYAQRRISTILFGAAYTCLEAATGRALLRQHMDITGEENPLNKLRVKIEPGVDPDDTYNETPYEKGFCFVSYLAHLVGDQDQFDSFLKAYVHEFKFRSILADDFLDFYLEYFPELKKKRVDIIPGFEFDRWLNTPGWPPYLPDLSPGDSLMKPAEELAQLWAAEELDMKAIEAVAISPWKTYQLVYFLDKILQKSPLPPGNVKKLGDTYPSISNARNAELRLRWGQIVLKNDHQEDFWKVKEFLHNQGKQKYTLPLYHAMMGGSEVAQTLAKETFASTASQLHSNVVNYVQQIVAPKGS
T1 sequence (P15144 whole entry): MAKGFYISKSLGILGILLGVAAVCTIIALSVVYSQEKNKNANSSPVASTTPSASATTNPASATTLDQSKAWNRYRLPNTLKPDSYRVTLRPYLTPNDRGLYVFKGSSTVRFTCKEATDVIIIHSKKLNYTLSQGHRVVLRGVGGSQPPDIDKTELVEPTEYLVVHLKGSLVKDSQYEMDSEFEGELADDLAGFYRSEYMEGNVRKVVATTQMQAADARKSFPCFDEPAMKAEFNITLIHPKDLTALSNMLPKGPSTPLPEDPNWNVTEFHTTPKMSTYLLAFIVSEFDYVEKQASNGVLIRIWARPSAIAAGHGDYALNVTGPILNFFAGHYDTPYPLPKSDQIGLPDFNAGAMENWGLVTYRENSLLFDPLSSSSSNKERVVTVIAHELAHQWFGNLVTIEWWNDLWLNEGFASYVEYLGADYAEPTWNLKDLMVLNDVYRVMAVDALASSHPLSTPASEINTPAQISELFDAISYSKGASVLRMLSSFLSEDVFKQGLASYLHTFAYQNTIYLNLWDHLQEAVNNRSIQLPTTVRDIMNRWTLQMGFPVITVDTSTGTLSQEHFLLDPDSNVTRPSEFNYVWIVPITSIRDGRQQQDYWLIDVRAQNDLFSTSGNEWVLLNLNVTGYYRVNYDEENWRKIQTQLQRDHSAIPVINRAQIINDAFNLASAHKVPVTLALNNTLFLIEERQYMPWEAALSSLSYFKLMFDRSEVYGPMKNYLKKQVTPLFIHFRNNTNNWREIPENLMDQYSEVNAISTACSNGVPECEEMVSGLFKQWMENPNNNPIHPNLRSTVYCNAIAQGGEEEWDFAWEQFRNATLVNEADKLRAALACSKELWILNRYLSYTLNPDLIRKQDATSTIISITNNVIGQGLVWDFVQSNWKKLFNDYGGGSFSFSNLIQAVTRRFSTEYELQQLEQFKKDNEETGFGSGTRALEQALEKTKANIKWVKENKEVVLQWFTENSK

Row | Structure (SMILES) | pKi (Aminopeptidase B) | pKi (Aminopeptidase N [1]) | pKi (Aminopeptidase N [2]) | pKi (Aminopeptidase N [3])
1 | CC(=O)[C@@H](N)CC(C)C | < 3.00 | 3.37 |  | 
2 | CC(C)CCNC(=O)[C@@H](O)[C@H](N)CC(C)C | < 3.52 | 4.62 |  | 
3 | CC(C)CCNC(=O)C(=O)[C@H](N)CC(C)C | 5.19 | 4.74 |  | 
4 | CC(C)C[C@H](N)C(=O)CC(C)C(=O)O (stereo partly drawn) | 3.89 |  | 3.03 | 3.18
5 | CC(C)CCNC(=O)C(=O)[C@@H](N)CC(C)C | 5.49 | 4.98 |  | 
6 | CC(C)C[C@H](N)C(=O)CC(Cc1ccccc1)C(=O)O (stereo partly drawn) | 6.77 |  | 3.59 | 4.10
7 | CC(C)CCNC(=O)[C@@H](O)[C@H](N)Cc1ccccc1 | 4.41 | 4.70 |  | 
8 | CC(C)CCNC(=O)C(=O)C(N)Cc1ccccc1 (stereo not drawn) | 5.82 | 5.60 |  | 
